Laboratory results: ChEMBL document CHEMBL4507294, “Data for DCP probe MSD-CYP11B2” (2021)

How the values were obtained:
[1] = molecular target: Proto-oncogene tyrosine-protein kinase Src (Homo sapiens) (UniProt P12931); settings: Compound concentration 1000.0 nM
[2] = molecular target: cAMP-dependent protein kinase catalytic subunit alpha (Homo sapiens) (UniProt P17612); settings: Compound concentration 1000.0 nM
[3] = molecular target: Ephrin type-A receptor 3 (Homo sapiens) (UniProt P29320); settings: Compound concentration 1000.0 nM
[4] = molecular target: MAP kinase-activated protein kinase 2 (Homo sapiens) (UniProt P49137); settings: Compound concentration 1000.0 nM
[5] = molecular target: Dual specificity tyrosine-phosphorylation-regulated kinase 1B (Homo sapiens) (UniProt Q9Y463); settings: Compound concentration 1000.0 nM
[6] = molecular target: Mitogen-activated protein kinase kinase kinase 9 (Homo sapiens) (UniProt P80192); settings: Compound concentration 1000.0 nM
[7] = molecular target: Casein kinase II subunit alpha (Homo sapiens) (UniProt P68400); settings: Compound concentration 1000.0 nM
[8] = molecular target: Cyclin-dependent kinase 2 (Homo sapiens) (UniProt P24941); settings: Compound concentration 1000.0 nM
[9] = molecular target: Mitogen-activated protein kinase 11 (Homo sapiens) (UniProt Q15759); settings: Compound concentration 1000.0 nM
[10] = molecular target: Mitogen-activated protein kinase kinase kinase 7 (Homo sapiens) (UniProt O43318); settings: Compound concentration 1000.0 nM
[11] = molecular target: Serine/threonine-protein kinase 17B (Homo sapiens) (UniProt O94768); settings: Compound concentration 1000.0 nM
[12] = molecular target: Serine/threonine-protein kinase SIK3 (Homo sapiens) (UniProt Q9Y2K2); settings: Compound concentration 1000.0 nM
[13] = molecular target: Dual specificity mitogen-activated protein kinase kinase 3 (Homo sapiens) (UniProt P46734); settings: Compound concentration 1000.0 nM
[14] = molecular target: MAP/microtubule affinity-regulating kinase 4 (Homo sapiens) (UniProt Q96L34); settings: Compound concentration 1000.0 nM
[15] = molecular target: 5'-AMP-activated protein kinase catalytic subunit alpha-2 (Homo sapiens) (UniProt P54646); settings: Compound concentration 1000.0 nM
[16] = molecular target: Interleukin-1 receptor-associated kinase 3 (Homo sapiens) (UniProt Q9Y616); settings: Compound concentration 1000.0 nM
[17] = molecular target: 5-hydroxytryptamine receptor 2B (Homo sapiens, UniProt P41595); settings: Compound concentration 10.0 uM
[18] = test system: Phosphatidylinositol 4,5-bisphosphate 3-kinase catalytic subunit alpha isoform (Homo sapiens), P42336 [Q546K]; settings: Compound concentration 1000.0 nM
[19] = molecular target: Serine/threonine-protein kinase VRK2 (Homo sapiens) (UniProt Q86Y07); settings: Compound concentration 1000.0 nM
[20] = molecular target: Mitogen-activated protein kinase kinase kinase 4 (Homo sapiens) (UniProt Q9Y6R4); settings: Compound concentration 1000.0 nM
[21] = test system: Phosphatidylinositol 4,5-bisphosphate 3-kinase catalytic subunit alpha isoform (Homo sapiens), P42336 [E542K]; settings: Compound concentration 1000.0 nM
[22] = molecular target: Proto-oncogene tyrosine-protein kinase receptor Ret (Homo sapiens) (UniProt P07949); settings: Compound concentration 1000.0 nM
[23] = molecular target: Alpha-2A adrenergic receptor (Homo sapiens) (UniProt P08913); settings: Compound concentration 10.0 uM
[24] = molecular target: Hormonally up-regulated neu tumor-associated kinase (Homo sapiens) (UniProt P57058); settings: Compound concentration 1000.0 nM
[25] = molecular target: Phosphatidylinositol 4,5-bisphosphate 3-kinase catalytic subunit beta isoform (Homo sapiens) (UniProt P42338); settings: Compound concentration 1000.0 nM
[26] = molecular target: Cyclin-dependent kinase 14 (Homo sapiens) (UniProt O94921); settings: Compound concentration 1000.0 nM
[27] = test system: Fibroblast growth factor receptor 3 (Homo sapiens), P22607 [G697C]; settings: Compound concentration 1000.0 nM
[28] = molecular target: Macrophage-stimulating protein receptor (Homo sapiens) (UniProt Q04912); settings: Compound concentration 1000.0 nM
[29] = molecular target: RAC-alpha serine/threonine-protein kinase (Homo sapiens) (UniProt P31749); settings: Compound concentration 1000.0 nM
[30] = molecular target: Serine/threonine-protein kinase D1 (Homo sapiens) (UniProt Q15139); settings: Compound concentration 1000.0 nM
[31] = molecular target: Alpha-2C adrenergic receptor (Homo sapiens) (UniProt P18825); settings: Compound concentration 10.0 uM
[32] = molecular target: Phosphatidylinositol 5-phosphate 4-kinase type-2 beta (Homo sapiens) (UniProt P78356); settings: Compound concentration 1000.0 nM
[33] = molecular target: Insulin receptor-related protein (Homo sapiens) (UniProt P14616); settings: Compound concentration 1000.0 nM
[34] = molecular target: Aurora kinase A (Homo sapiens) (UniProt O14965); settings: Compound concentration 1000.0 nM
[35] = molecular target: Mitogen-activated protein kinase 12 (Homo sapiens) (UniProt P53778); settings: Compound concentration 1000.0 nM
[36] = molecular target: Serine/threonine-protein kinase TBK1 (Homo sapiens) (UniProt Q9UHD2); settings: Compound concentration 1000.0 nM
[37] = molecular target: 5-hydroxytryptamine receptor 6 (Homo sapiens, UniProt P50406); settings: Compound concentration 10.0 uM
[38] = molecular target: Inhibitor of nuclear factor kappa-B kinase subunit alpha (Homo sapiens) (UniProt O15111); settings: Compound concentration 1000.0 nM
[39] = molecular target: Serine/threonine-protein kinase Nek9 (Homo sapiens) (UniProt Q8TD19); settings: Compound concentration 1000.0 nM
[40] = test system: Hepatocyte growth factor receptor (Homo sapiens), P08581 [Y1235D]; settings: Compound concentration 1000.0 nM
[41] = molecular target: Serine/threonine-protein kinase TNNI3K (Homo sapiens) (UniProt Q59H18); settings: Compound concentration 1000.0 nM
[42] = test system: Epidermal growth factor receptor (Homo sapiens), P00533 [UNDEFINED MUTATION]; settings: Compound concentration 1000.0 nM
[43] = molecular target: Muscarinic acetylcholine receptor M3 (Homo sapiens) (UniProt P20309); settings: Compound concentration 10.0 uM
[44] = test system: Epidermal growth factor receptor (Homo sapiens), P00533 [G719C]; settings: Compound concentration 1000.0 nM
[45] = molecular target: Fibroblast growth factor receptor 2 (Homo sapiens) (UniProt P21802); settings: Compound concentration 1000.0 nM

Phosphatidylinositol 4,5-bisphosphate 3-kinase catalytic subunit alpha isoform (Homo sapiens), P42336 [Q546K], sequence (P42336 whole entry Q546K, canonical isoform): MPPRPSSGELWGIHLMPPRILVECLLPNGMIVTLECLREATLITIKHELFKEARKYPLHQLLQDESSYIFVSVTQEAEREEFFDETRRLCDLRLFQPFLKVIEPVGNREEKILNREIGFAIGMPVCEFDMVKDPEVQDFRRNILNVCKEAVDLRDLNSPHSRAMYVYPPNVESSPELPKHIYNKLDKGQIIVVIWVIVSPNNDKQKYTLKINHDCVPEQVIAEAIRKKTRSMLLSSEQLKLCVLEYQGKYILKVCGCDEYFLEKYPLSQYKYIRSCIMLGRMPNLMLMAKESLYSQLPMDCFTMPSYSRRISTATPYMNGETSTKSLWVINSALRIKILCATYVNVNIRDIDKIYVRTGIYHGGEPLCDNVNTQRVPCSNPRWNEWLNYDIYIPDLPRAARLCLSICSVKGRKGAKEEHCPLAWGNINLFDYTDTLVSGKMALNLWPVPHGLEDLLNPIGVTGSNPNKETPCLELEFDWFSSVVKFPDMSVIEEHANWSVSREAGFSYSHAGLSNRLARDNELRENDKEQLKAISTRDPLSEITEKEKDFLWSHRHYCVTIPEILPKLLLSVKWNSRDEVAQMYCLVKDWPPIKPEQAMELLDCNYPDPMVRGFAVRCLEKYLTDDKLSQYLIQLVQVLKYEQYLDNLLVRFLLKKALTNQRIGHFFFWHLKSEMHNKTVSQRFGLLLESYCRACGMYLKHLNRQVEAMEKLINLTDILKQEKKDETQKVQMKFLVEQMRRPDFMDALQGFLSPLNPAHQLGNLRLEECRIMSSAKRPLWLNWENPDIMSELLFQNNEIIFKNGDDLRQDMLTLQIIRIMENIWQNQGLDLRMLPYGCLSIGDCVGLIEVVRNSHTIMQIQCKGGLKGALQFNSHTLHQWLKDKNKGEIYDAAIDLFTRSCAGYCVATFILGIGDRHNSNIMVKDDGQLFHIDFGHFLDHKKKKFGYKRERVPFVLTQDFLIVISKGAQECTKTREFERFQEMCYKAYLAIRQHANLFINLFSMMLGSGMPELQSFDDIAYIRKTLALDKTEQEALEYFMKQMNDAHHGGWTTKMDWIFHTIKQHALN
Casein kinase II subunit alpha (Homo sapiens), sequence (P68400 whole entry, looked up): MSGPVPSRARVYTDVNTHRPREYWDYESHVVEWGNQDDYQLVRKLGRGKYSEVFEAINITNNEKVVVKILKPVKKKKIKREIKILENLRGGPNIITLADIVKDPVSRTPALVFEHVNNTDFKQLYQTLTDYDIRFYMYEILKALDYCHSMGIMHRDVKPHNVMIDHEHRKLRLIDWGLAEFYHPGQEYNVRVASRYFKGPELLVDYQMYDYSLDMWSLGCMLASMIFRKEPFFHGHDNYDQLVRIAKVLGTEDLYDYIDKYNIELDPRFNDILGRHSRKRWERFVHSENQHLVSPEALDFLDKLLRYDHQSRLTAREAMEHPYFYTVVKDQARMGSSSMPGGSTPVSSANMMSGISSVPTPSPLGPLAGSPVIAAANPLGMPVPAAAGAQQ
Serine/threonine-protein kinase TBK1 (Homo sapiens), sequence (Q9UHD2 whole entry): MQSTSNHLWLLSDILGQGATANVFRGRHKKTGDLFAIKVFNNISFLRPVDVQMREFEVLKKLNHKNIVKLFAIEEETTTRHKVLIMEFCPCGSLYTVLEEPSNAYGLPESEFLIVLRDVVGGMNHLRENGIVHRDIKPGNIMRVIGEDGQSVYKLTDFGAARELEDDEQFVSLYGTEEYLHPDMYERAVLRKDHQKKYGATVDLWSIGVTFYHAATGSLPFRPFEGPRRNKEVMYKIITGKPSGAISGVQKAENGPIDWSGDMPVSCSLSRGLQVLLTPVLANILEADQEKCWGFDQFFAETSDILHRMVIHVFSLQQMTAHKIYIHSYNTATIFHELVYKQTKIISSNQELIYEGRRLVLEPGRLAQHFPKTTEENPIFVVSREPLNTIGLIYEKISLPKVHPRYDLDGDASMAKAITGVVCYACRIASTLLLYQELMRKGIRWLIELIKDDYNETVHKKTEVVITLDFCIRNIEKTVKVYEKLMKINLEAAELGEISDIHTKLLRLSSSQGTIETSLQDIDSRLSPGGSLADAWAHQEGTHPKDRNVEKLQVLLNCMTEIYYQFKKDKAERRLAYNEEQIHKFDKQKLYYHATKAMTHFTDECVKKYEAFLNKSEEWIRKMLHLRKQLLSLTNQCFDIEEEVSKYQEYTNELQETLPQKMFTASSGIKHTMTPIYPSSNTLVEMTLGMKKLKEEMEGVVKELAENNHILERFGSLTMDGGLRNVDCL
5-hydroxytryptamine receptor 6, sequence (P50406 whole entry): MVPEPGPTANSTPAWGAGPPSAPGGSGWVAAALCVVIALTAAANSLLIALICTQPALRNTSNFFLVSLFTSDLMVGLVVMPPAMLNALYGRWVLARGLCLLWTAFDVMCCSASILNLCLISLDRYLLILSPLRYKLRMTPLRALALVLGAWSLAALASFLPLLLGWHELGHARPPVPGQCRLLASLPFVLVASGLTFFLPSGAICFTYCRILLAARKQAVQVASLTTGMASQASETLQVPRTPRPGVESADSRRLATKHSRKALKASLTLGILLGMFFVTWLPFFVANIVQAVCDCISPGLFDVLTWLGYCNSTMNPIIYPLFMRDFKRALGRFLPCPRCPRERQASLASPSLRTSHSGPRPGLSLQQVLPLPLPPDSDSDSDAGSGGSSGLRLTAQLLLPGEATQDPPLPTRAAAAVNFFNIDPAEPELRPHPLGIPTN
Mitogen-activated protein kinase 12 (Homo sapiens), sequence (P53778 whole entry): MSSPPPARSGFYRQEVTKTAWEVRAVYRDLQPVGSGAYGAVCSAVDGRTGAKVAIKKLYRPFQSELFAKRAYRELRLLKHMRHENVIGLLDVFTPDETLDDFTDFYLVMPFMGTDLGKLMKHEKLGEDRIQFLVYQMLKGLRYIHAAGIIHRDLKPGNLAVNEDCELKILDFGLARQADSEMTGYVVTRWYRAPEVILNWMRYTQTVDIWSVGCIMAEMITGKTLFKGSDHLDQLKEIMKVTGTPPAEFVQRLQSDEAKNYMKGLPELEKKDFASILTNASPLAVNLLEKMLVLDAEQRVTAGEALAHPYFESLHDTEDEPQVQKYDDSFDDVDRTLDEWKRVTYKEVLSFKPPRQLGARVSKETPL
Mitogen-activated protein kinase kinase kinase 4 (Homo sapiens), sequence (Q9Y6R4 whole entry, canonical isoform): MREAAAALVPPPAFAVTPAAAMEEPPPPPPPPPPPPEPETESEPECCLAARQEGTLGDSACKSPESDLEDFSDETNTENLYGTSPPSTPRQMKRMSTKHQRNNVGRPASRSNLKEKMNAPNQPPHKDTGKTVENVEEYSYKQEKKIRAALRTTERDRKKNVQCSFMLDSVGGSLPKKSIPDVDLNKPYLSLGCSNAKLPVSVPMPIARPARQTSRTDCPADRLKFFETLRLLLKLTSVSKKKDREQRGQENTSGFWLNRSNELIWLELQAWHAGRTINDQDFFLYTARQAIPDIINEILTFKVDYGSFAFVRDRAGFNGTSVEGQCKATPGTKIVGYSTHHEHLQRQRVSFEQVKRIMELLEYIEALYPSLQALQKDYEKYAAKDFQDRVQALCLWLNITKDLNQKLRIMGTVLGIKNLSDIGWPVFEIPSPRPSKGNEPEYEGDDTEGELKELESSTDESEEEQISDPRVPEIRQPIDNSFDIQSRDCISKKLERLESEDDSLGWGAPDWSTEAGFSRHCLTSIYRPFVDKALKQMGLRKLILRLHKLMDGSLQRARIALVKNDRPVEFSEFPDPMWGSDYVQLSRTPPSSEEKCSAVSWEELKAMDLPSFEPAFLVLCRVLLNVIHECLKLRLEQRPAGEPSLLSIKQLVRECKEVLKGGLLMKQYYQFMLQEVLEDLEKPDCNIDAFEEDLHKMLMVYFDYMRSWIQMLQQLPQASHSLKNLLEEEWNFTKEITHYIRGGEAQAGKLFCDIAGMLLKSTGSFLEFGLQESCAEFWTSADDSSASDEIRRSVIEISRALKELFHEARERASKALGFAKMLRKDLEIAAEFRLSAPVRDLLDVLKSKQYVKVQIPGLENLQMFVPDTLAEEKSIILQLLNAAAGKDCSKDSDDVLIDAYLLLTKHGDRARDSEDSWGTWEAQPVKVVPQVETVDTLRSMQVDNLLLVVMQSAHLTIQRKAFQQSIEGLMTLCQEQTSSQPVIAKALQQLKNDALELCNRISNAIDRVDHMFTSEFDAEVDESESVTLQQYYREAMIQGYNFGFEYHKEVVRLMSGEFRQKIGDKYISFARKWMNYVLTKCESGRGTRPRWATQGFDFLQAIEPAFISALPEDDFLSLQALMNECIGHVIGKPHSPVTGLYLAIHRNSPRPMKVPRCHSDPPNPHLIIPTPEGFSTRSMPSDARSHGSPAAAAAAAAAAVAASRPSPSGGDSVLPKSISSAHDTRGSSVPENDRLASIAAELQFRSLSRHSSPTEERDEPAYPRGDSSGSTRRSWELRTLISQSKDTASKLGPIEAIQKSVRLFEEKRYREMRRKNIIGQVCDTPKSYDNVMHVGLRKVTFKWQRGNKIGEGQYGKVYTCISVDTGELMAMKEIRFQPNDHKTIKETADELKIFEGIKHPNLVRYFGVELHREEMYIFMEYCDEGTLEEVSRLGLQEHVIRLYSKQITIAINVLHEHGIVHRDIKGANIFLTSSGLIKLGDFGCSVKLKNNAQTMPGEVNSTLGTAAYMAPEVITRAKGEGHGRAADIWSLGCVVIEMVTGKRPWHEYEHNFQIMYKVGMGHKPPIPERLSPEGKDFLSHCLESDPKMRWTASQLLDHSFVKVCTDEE
Alpha-2A adrenergic receptor (Homo sapiens), sequence (P08913 whole entry): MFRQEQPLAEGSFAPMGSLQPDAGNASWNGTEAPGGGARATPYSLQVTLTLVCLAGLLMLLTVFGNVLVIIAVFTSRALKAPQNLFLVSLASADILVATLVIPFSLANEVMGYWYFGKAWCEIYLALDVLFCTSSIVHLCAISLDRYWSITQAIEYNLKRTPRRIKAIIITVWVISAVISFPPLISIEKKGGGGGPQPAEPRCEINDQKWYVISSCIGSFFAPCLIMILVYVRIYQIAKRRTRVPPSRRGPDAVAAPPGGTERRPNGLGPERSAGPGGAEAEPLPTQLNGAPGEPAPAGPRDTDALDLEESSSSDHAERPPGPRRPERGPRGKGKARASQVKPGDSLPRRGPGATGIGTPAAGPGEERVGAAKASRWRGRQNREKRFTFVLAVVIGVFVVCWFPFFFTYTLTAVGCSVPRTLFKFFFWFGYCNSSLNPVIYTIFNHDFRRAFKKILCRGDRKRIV

Compound `FC(F)(F)c1ccc2c(c1)nc(-c1cccnc1)n2C1CC1` [MSD-CYP11B2-Negative-control] has a residual activity [1] of 100%, a residual activity [2] of 100% and a residual activity [3] of 100%. The residual activity [4] was 100%, the residual activity [5] was 53% and the residual activity [6] was 100%. The residual activity [7] was 100%, the residual activity [8] was 100% and the residual activity [9] was 100%. The residual activity [10] was 100%, the residual activity [11] was 100% and the residual activity [12] was 100%. For the same compound, the residual activity [13] was 100%, the residual activity [14] was 100% and the residual activity [15] was 100%. The residual activity [16] was 100%, the inhibition [17] was 79.7% and the residual activity [18] was 99%. For the same compound, the residual activity [19] was 100%, the residual activity [20] was 100% and the residual activity [21] was 100%. The residual activity [22] was 99%, the inhibition [23] was 6.92% and the residual activity [24] was 100%. The residual activity [25] was 97%, the residual activity [26] was 100% and the residual activity [27] was 100%. It also gave a residual activity [28] of 100%, a residual activity [29] of 100% and a residual activity [30] of 100%. For the same compound, the inhibition [31] was 13.3%, the residual activity [32] was 82% and the residual activity [33] was 100%. It also gave a residual activity [34] of 98%, a residual activity [35] of 100% and a residual activity [36] of 82%. For the same compound, the inhibition [37] was 60.4%, the residual activity [38] was 100% and the residual activity [39] was 100%. For the same compound, the residual activity [40] was 100%, the residual activity [41] was 100% and the residual activity [42] was 87%. For the same compound, the inhibition [43] was -1.22%, the residual activity [44] was 92% and the residual activity [45] was 100%.
Work on `CC(C)(O)c1cncc(-c2nc3ccc(F)cc3n2C2CC2)c1` [MSD-CYP11B2] yielded a residual activity [1] of 100%, a residual activity [2] of 100% and a residual activity [3] of 100%. For the same compound, the residual activity [4] was 100%, the residual activity [5] was 44% and the residual activity [6] was 100%. It also gave a residual activity [7] of 100%, a residual activity [8] of 100% and a residual activity [9] of 100%. For the same compound, the residual activity [10] was 100%, the residual activity [11] was 77% and the residual activity [12] was 97%. It also gave a residual activity [13] of 100%, a residual activity [14] of 100% and a residual activity [15] of 100%. The residual activity [16] was 100%, the inhibition [17] was 63.1% and the residual activity [18] was 78%. The residual activity [19] was 100%, the residual activity [20] was 100% and the residual activity [21] was 84%. It also gave a residual activity [22] of 100%, an inhibition [23] of 74.6% and a residual activity [24] of 100%. The residual activity [25] was 81%, the residual activity [26] was 100% and the residual activity [27] was 100%. For the same compound, the residual activity [28] was 100%, the residual activity [29] was 100% and the residual activity [30] was 100%. The inhibition [31] was 70.1%, the residual activity [32] was 99% and the residual activity [33] was 100%. For the same compound, the residual activity [34] was 94%, the residual activity [35] was 88% and the residual activity [36] was 72%. The inhibition [37] was 15.6%, the residual activity [38] was 100% and the residual activity [39] was 100%. The residual activity [40] was 100%, the residual activity [41] was 100% and the residual activity [42] was 100%. The inhibition [43] was 1.04%, the residual activity [44] was 100% and the residual activity [45] was 100%.
